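Protocol summary: plate cells (96-well), add compound at 5 concentrations, incubate 48 h, interpolate endpoints linearly. GI50 is the concentration that inhibits growth by half.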 Calls of active or inactive are those of the source. Cut-off read from the data, not from the text of the source: active = GI50 up to about 1.1 µM and inactive = higher.
What was measured:
Experiment in all cases: NCI-60 cell line screen, 48 h
A498 = system: A498
A549 = system: A549
ACHN = system: ACHN
CCRF-CEM = system: CCRF-CEM
HCT-116 = system: HCT-116
HCT-15 = system: HCT-15
Hs-578T = system: Hs-578T
K562 = system: K562
NCI-H226 = system: NCI-H226
NCI-H522 = system: NCI-H522
OVCAR-3 = system: OVCAR-3
OVCAR-8 = system: OVCAR-8
RPMI-8226 = system: RPMI-8226
SK-OV-3 = system: SK-OV-3
SN12C = system: SN12C
SNB-19 = system: SNB-19
SR = system: SR
UACC-257 = system: UACC-257
UO-31 = system: UO-31

Compound	GI50 (A498)	GI50 (A549)	GI50 (ACHN)	GI50 (CCRF-CEM)	GI50 (HCT-116)	GI50 (HCT-15)	GI50 (Hs-578T)	GI50 (K562)	GI50 (NCI-H226)	GI50 (NCI-H522)	GI50 (OVCAR-3)	GI50 (OVCAR-8)	GI50 (RPMI-8226)	GI50 (SK-OV-3)	GI50 (SN12C)	GI50 (SNB-19)	GI50 (SR)	GI50 (UACC-257)	GI50 (UO-31)
OCCN1CCN(c2nc(N3CCCC3)c3nc(Cl)c(NCc4ccccc4)nc3n2)CC1	12.5 µM (inactive)	6.59 µM (inactive)	7.8 µM (inactive)	3.8 µM (inactive)	5.6 µM (inactive)	2.84 µM	8.61 µM (inactive)	2.54 µM (inactive)	17.6 µM (inactive)	5.04 µM (inactive)	8.02 µM (inactive)	8.77 µM (inactive)	2.83 µM (inactive)	13.7 µM (inactive)	10.4 µM (inactive)	7.62 µM (inactive)	2.54 µM (inactive)	5.15 µM (inactive)	4.89 µM (inactive)
COc1ccc(N2C=Nn3c(nc4sc5c(c4c3=O)CCCC5)C2)cc1	14 µM (inactive)	> 100 µM (inactive)	12.1 µM (inactive)	> 100 µM (inactive)	19.4 µM (inactive)	> 100 µM	3.02 µM (inactive)	> 100 µM (inactive)	84.3 µM (inactive)	16.3 µM (inactive)	> 100 µM (inactive)	51.4 µM (inactive)	> 100 µM (inactive)	> 100 µM (inactive)	> 100 µM (inactive)	28.2 µM (inactive)	> 100 µM (inactive)	56.1 µM (inactive)	> 100 µM (inactive)
O=CNc1ncn[nH]1	> 100 µM (inactive)	> 100 µM (inactive)	> 100 µM (inactive)	> 100 µM (inactive)	> 100 µM (inactive)	> 100 µM	> 100 µM (inactive)	> 100 µM (inactive)	> 100 µM (inactive)	> 100 µM (inactive)	> 100 µM (inactive)	> 100 µM (inactive)	> 100 µM (inactive)	> 100 µM (inactive)	> 100 µM (inactive)	> 100 µM (inactive)	> 100 µM (inactive)	> 100 µM (inactive)	> 100 µM (inactive)
O=C(O)CC(C(=O)O)C1c2ccccc2-c2ccccc21 (stereo unspecified)	> 100 µM (inactive)	56.4 µM (inactive)	92.9 µM (inactive)	32.4 µM (inactive)	> 100 µM (inactive)	> 100 µM	> 100 µM (inactive)	> 100 µM (inactive)	> 100 µM (inactive)	47.9 µM (inactive)	35.5 µM (inactive)	67 µM (inactive)	41.1 µM (inactive)	66.8 µM (inactive)	> 100 µM (inactive)	34 µM (inactive)	37.5 µM (inactive)	> 100 µM (inactive)	> 100 µM (inactive)

Reference: ChEMBL document CHEMBL1201862, “PubChem BioAssay data set” (2004)
